# According to ChEMBL document CHEMBL1201862, “PubChem BioAssay data set” (2004):
# Active and inactive are the calls of the source.
# Experiments:
# [1] = reduction of Shn3 3'UTR-driven luciferase in osteoblasts – cell-based, Clone20 osteoblasts, firefly luciferase, cherry-picked, dose response (AID 624132); format: functional;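 further: firefly luciferase luminescence from reporter carrying the Shn3 3'UTR in osteoblasts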
# [2] = loss of viability in HepG2 cells – cell-based, CellTiter-Glo, cherry-picked, cytotoxicity control for Shn3 inhibitor project, dose response (AID 624134); format: functional
# [3] = non-specific 3'UTR reporter inhibition in Clone20-Shn3RL – cell-based, Renilla luciferase, cherry-picked, counter-screen for Shn3 inhibitor project, dose response (AID 624133); format: functional
# [4] = Shn3 3'UTR reporter signal decrease – cell-based, Clone20 osteoblasts, firefly luciferase, cherry-pick, set 2, Schnurri-3 inhibitor project, dose response (AID 720490); format: functional;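 further: actives lower the luminescence signal as inhibitors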
# [5] = toxicity toward HepG2 liver cells – cell-based, plate reader, cherry-pick, antagonist series, cytotoxicity control, dose response (AID 743416); format: functional
# [6] = blockers of bursicon-stimulated LGR2 cAMP reporter – cell-based, HEK293, CRE-luciferase reporter, cherry pick, set 2, dose response (AID 743343); format: functional;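 further: transfected cells were stimulated with diluted bursicon conditioned medium after compound addition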
# [7] = blockade of melanocortin 4 receptor signaling – cell-based, plate reader, cherry pick, counter-screen for LGR2 antagonist project, dose response (AID 743444); format: functional;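 further: transfected HEK 293 cells stimulated with alpha-MSH peptide; potency of inhibitors of the alpha-MSH evoked signal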
# [8] = viability loss in HEK293 cells – cell-based, plate reader, cherry-picked samples, cytotoxicity control, dose response (AID 743446); format: functional
# Paired box protein Pax-8 = Paired box protein Pax-8 (Homo sapiens, UniProt Q06710); experiment: PAX8 transcriptional activity inhibition in RMG-I – RMG-I cells, luciferase, cherry-pick, dose response (AID 687027); format: functional, cell-based;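 further: luciferase reporter driven by Pax8 target thyroperoxidase promoter measured by SteadyGlo luminescence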
# Chain of Paired box protein Pax-8 (Q06710 whole entry): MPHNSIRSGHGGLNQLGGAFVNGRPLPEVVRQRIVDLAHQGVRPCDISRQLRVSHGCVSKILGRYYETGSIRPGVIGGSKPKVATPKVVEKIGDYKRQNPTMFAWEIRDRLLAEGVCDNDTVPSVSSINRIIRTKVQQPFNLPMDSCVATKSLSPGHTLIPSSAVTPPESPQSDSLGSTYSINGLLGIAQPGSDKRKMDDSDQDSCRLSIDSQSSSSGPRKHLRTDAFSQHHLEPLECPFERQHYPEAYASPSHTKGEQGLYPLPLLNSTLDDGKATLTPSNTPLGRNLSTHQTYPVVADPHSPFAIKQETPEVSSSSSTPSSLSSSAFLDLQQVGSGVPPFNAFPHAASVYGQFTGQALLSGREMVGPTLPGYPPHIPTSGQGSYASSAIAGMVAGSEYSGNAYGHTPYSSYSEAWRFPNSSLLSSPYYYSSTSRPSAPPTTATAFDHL
# [9] = toxicity toward immortalized ovarian surface epithelium – cell-based, plate reader, dry powder samples, cytotoxicity control for PAX8 inhibitor project, dose response (AID 743045); format: functional
# [10] = OVCAR-3 cell viability loss – plate reader, dry powder samples, PAX8 inhibitor project, dose response (AID 743044); format: functional, cell-based
# [11] = OVCAR8 cell viability loss – plate reader, dry powder samples, PAX8 project, dose response (AID 743197); format: functional, cell-based; settings: OVCAR-8
# Jurkat = experiment: blockers of NF-kB activation in T cells – Jurkat, luciferase reporter, luminescence, B- and T-cell, dose response (AID 489004); format: functional, cell-based; settings: Homo sapiens;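 further: NF-kB luciferase reporter Jurkat cells stimulated with PMA plus ionomycin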
# [12] = HEK-293T viability loss, compound-treated – cell-based, uHTS hits, cytotoxicity control for B/T-cell NF-kB inhibitor project, dose response (AID 489019); format: functional;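 further: IC50 reflects cytotoxicity as loss of cell viability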
# [13] = target: 1-phosphatidylinositol 4,5-bisphosphate phosphodiesterase gamma-1 (Homo sapiens, UniProt P19174); experiment: Counterscreen for inhibitors of phospholipase C isozymes (PLC-B3): Fluorescence-based biochemical high throughput dose response assay to identify inhibitors of phospholipase C isozymes (PLC-gamma1).
# Chain of 1-phosphatidylinositol 4,5-bisphosphate phosphodiesterase gamma-1 (P19174 whole entry): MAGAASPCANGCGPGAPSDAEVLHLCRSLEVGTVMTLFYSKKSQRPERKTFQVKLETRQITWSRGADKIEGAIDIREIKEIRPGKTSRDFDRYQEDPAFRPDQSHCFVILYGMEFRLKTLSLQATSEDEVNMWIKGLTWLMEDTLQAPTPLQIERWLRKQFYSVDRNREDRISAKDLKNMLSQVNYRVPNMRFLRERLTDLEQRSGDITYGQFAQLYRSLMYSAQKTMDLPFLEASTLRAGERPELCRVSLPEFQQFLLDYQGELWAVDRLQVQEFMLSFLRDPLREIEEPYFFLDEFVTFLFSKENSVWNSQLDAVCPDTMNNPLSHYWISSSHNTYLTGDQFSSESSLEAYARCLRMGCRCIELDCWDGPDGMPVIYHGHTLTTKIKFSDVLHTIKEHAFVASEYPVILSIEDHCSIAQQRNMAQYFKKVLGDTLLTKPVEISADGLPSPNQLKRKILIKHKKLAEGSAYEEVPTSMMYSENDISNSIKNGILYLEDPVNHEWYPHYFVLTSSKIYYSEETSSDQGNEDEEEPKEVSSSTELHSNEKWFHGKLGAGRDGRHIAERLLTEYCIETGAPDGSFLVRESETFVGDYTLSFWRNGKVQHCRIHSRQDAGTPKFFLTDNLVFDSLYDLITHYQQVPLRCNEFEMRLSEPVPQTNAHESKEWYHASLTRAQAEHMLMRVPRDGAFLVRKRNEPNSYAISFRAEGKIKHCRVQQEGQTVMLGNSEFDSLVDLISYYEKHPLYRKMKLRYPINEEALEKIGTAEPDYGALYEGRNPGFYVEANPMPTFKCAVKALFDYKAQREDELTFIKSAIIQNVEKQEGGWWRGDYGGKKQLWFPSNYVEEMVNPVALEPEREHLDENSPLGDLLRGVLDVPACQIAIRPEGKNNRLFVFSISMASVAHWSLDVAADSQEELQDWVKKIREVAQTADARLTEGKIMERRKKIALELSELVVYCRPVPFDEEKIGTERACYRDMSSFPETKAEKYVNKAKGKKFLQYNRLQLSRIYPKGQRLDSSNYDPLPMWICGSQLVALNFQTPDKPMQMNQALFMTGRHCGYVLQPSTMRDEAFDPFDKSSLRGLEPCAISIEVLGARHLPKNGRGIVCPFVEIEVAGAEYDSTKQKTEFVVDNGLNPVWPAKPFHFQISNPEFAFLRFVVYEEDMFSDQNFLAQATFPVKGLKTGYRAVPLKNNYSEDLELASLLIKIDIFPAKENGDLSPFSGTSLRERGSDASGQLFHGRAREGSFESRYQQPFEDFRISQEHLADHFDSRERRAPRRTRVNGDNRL
# [14] = target: 1-phosphatidylinositol 4,5-bisphosphate phosphodiesterase beta-3 (Homo sapiens, UniProt Q01970); experiment: Fluorescence-based biochemical high throughput dose response assay to identify inhibitors of phospholipase C isozymes (PLC-B3).
# Chain of 1-phosphatidylinositol 4,5-bisphosphate phosphodiesterase beta-3 (Q01970 whole entry): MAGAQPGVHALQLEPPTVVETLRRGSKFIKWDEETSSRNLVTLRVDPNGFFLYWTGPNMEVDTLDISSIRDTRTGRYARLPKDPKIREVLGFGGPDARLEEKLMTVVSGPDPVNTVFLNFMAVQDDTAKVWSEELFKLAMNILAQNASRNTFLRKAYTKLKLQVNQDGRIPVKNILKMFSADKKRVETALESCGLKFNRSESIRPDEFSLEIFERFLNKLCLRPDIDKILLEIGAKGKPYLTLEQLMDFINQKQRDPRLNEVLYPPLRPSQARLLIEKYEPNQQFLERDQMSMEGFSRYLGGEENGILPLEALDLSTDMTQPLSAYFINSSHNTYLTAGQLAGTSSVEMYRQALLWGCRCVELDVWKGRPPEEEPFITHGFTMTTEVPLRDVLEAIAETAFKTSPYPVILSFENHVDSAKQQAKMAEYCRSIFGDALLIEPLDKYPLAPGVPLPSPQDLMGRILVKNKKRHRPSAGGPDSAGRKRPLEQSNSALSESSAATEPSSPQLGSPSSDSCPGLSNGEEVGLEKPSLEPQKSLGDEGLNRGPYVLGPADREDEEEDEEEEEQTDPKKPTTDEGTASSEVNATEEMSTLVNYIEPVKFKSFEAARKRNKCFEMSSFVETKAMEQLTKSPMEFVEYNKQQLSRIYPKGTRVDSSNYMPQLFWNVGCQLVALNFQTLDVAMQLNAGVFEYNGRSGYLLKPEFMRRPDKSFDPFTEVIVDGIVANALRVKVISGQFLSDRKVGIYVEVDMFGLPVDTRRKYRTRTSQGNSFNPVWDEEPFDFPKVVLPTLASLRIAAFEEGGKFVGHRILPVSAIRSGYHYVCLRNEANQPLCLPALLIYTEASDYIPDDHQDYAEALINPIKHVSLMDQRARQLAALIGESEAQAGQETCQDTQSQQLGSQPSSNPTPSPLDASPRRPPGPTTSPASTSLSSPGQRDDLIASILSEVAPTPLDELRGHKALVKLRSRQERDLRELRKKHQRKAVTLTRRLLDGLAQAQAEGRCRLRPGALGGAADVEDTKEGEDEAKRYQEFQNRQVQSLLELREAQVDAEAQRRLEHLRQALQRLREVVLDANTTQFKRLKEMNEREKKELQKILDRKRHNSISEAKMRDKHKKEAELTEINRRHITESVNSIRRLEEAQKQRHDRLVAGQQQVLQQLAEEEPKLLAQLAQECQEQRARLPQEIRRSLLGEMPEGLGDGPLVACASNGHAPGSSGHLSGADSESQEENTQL
# [15] = Luminescence Cell-Based Dose Response HTS to Identify Activators of Luciferase Translation or Activity in H4 […] Cells. [Related pubchem assays: 1829 (Project Summary), 1814 (Primary HTS)]; format: functional
# cells [16] = format: functional, cell-based
# H4 = experiment: Luminescence Cell-Based Dose Response HTS to Identify Activators of 5'UTR Stem-Loop Driven Prion Protein mRNA Translation in H4 Neuroglioblastoma Cells. [Related pubchem assays: 1829 (Project Summary), 1814 (Primary HTS)]; format: functional; settings: Homo sapiens
# cells [17] = format: functional, cell-based; remark: listed apart in the source
# Protein skinhead-1 = target: T1, Protein skinhead-1 (Caenorhabditis elegans, UniProt P34707); format: functional
# T1 sequence (P34707 whole entry): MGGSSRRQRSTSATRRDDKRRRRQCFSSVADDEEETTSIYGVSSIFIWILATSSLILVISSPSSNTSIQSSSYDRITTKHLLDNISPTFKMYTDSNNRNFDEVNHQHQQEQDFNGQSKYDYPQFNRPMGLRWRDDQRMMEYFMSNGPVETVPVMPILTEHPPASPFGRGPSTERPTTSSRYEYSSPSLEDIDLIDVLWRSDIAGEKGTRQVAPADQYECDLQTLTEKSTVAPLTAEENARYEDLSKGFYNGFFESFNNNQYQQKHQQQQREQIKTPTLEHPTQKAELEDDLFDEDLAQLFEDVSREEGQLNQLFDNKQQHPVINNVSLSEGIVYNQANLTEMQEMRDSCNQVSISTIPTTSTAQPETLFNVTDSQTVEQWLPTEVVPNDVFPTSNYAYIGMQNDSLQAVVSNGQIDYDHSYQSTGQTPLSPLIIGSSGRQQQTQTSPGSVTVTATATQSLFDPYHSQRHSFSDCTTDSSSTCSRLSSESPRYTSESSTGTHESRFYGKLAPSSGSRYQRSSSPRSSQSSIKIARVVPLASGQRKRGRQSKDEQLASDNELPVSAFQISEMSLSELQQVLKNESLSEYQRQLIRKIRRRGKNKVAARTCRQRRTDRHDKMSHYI
# [18] = viability loss in HepG2 hepatoma cells – cell-based, ATP luminescence, cherry-pick, activator set 2, cytotoxicity control, dose response (AID 1053143); format: functional
structure (smiles),measurement,setting,value
COc1cc(NC(=O)c2cccc3c(-c4cccnc4)coc23)cc(OC)c1OC,AC50,[1],0.978 µM (active)
same,AC50,[2],57.5 µM (active)
same,AC50,[3],11.5 µM (active)
same,AC50,[4],5.23 µM (active)
same,AC50,[5],> 52 µM (inactive)
same,AC50,[6],11.2 µM (active)
same,AC50,[7],11.2 µM (active)
same,AC50,[8],28.6 µM (active)
C[C@@H]1CCCCO[C@H](CN(C)Cc2ccc(C(=O)Nc3ccccc3N)cc2)[C@@H](C)CN([C@@H](C)CO)C(=O)c2cc(NS(=O)(=O)c3ccc(Cl)cc3)ccc2O1,AC50,Paired box protein Pax-8,11.7 µM (active)
same,AC50,[9],46.9 µM (active)
same,AC50,[10],7.38 µM (active)
same,AC50,[11],41.6 µM (active)
CCn1c(C)cc(C(=O)COC(=O)c2ccccc2[N+](=O)[O-])c1C,IC50,Jurkat,< 0.16 µM (active)
same,IC50,[12],> 80 µM (inactive)
same,AC50,[1],< 0.26 µM (active)
same,AC50,[4],< 0.135 µM (active)
CC(C)c1ccccc1NC(=O)Nc1ccc2c(c1)OCO2,IC50,[13],> 123 µM (inactive)
same,IC50,[14],> 123 µM (inactive)
COc1ccc(S(=O)(=O)Nc2ccc3c(c2)C(=O)N([C@@H](C)CO)C[C@@H](C)[C@@H](CN(C)Cc2ccc(C(F)(F)F)cc2)OCCCC[C@@H](C)O3)cc1,AC50,Paired box protein Pax-8,6.1 µM (active)
same,AC50,[9],24 µM (active)
same,AC50,[10],23.1 µM (active)
same,AC50,[11],22.5 µM (active)
O=C(NC1CCCC1)c1cc(-c2ccccc2)on1,EC50,[15],0.355 µM (active)
same,EC50,cells [16],330 µM (active)
same,EC50,H4,3.13 µM (active)
same,EC50,cells [17],> 350 µM (not active)
same,IC50,Protein skinhead-1,> 100 µM (inactive)
same,AC50,[18],26 µM (active)
